{"source": "patent US20180146698A1", "about": "“FORMULA FEED FOR POULTRY” (JXTG Nippon Oil & Energy Corporation, priority 2015, published 2018)", "key": {"Julia Light hens": {"system": "Julia Light hens", "assay": "Chicken egg color enhancement test 1: yolk color fan value, low- and standard-corn-content feed", "format": "in vivo, chickens", "experimental": "A preparation of dry cells of a Paracoccus bacterium (with an astaxanthin content of 2%) and a paprika colorant preparation (with a t-capsanthin content of 0.25%) were used as coloring agents for evaluation. Cells of a nitrosoguanidine mutant strain obtained from the Paracoccus carotinifaciens E-396 strain (FERM BP-4283) were used as carotenoid-producing Paracoccus bacterial cells for a preparation of dry cells of a Paracoccus bacterium. The preparation was cultured in a seed flask medium and then cultured in a main culture medium at 28° C. under aerobic conditions until the bacterial cell concentration reached the maximum level. Next, the cultured cells were collected and recovered using a centrifuge. The recovered Paracoccus bacterial cells were dried using a double drum dryer at a drum rotation speed of 3.5 rpm and a drum temperature of 140° C. The average particle size (volume particle size D50) of the obtained power was approximately […]. The powder was further finely powderized (pulverized) using a jet mill (Seishin Enterprise Co., Ltd.) so that the average particle size (D50) became 9 μm. The obtained product was used as a preparation of dry cells of a Paracoccus bacterium. As a paprika colorant preparation, Color Up (a product with a total xanthophyll concentration of 5 g/kg, Kohkin Chemical Co., Ltd.) was used. The above preparations were added to a low-corn-content feed and a standard-corn-content feed listed in Table 1, thereby preparing formula feeds each containing astaxanthin or t-capsanthin at a final concentration of 1, 2, 4, or 8 ppm. Table 2 lists measured concentrations of astaxanthin and t-capsanthin contained in the actually produced formula feeds. Julia Light hens were used for tests. Ten chickens were provided for each test plot. The acclimatization period was set to 2 weeks. Eggs collected in Week 2, during which the color fan value became stabilized, or later, were evaluated. Eggs were collected from each test plot. The color fan values of 10 chicken eggs were measured using Egg Multitester EMT-7300 (JA Z-Tamago Co., Ltd.) for each test plot. The yolk carotenoid concentration was determined for 3 eggs for each test plot. FIGS. 1 and 2 show the relationship between the concentrations of astaxanthin and t-capsanthin in both feeds and the yolk color fan values of the obtained eggs. Based on the results of FIGS. 1 and 2, the concentrations of astaxanthin and t-capsanthin to be added to the low-corn-content feed in order to achieve a desired color fan value of 10 to 15 were calculated (Table 3). For example, in order to achieve a color fan value of 13, astaxanthin may be added to the low-corn-content feed so as to result in a final concentration of 2.2 ppm. Meanwhile, t-capsanthin needs to be added so as to result in a final concentration of 4.3 ppm."}, "chickens [1]": {"system": "chickens", "assay": "Chicken egg color enhancement test 2: yolk color fan value, feeds with corn contents of 30% to 50%", "format": "in vivo", "experimental": "The effects of the present invention were confirmed using feeds with corn contents of 30% to 50% in the same manner as in Example 1. Formula feeds were prepared by adding astaxanthin or t-capsanthin to feeds with the compositions listed in Table 5 so as to result in a final concentration of 1 to 16 ppm. In this Example, the feeds were the same except the corn content and the content of brown rice, which is added depending on a decrease in the corn content, and corn-derived corn gluten meal was not mixed therein. FIGS. 8a and 8b show the relationship between the astaxanthin and t-capsanthin concentrations in the feeds with corn contents of 30% and 50% and the yolk color fan values for the obtained eggs. Based on the results of FIGS. 8a and 8b, the concentrations of astaxanthin and t-capsanthin to be added to a feed in order to achieve a desired color fan value of 10 to 15 were calculated for feeds with corn contents of 30% and 50% (Table 6)."}, "chickens [2]": {"system": "chickens", "assay": "Yolk color measurement using colorimeter 2 (eggs of Example 8)", "format": "in vivo", "conditions": "2 ppm or 4 ppm; corn contents of 0% to 30%", "experimental": "The yolk color of eggs obtained in Example 8 was measured using a colorimeter (CM-700d, Konica Minolta Inc.). FIGS. 14a to 14c show the measurement results of the L*, a*, and b* values, respectively."}}, "data": [{"smiles": "CC1=C(/C=C/C(C)=C/C=C/C(C)=C/C=C/C=C(C)/C=C/C=C(C)/C=C/C(=O)[C@]2(C)C[C@@H](O)CC2(C)C)C(C)(C)C[C@H](O)C1", "note": "(relative stereo) [t-Capsanthin, trans-capsanthin, reference compound]", "values": [{"measurement": "change of color fan value, low-corn-content vs standard-corn-content feed", "setting": "Julia Light hens; colorant added at 4 ppm", "value": "did not increase"}, {"measurement": "CF value", "setting": "Julia Light hens; colorant added at 4 ppm, low-corn-content feed", "value": 12.2}, {"measurement": "CF value", "setting": "Julia Light hens; colorant added at 4 ppm, standard-corn-content feed", "value": 12.7}, {"measurement": "Colorant concentration in feed necessary for achieving the desired CF value", "setting": "Julia Light hens; desired CF value 10, low-corn-content feed", "value": 1.8, "unit": "ppm"}, {"measurement": "Colorant concentration in feed necessary for achieving the desired CF value", "setting": "Julia Light hens; desired CF value 11, low-corn-content feed", "value": 2.4, "unit": "ppm"}, {"measurement": "Colorant concentration in feed necessary for achieving the desired CF value", "setting": "Julia Light hens; desired CF value 12, low-corn-content feed", "value": 3.2, "unit": "ppm"}, {"measurement": "Colorant concentration in feed necessary for achieving the desired CF value", "setting": "Julia Light hens; desired CF value 13, low-corn-content feed", "value": 4.3, "unit": "ppm"}, {"measurement": "Colorant concentration in feed necessary for achieving the desired CF value", "setting": "Julia Light hens; desired CF value 14, low-corn-content feed", "value": 6.0, "unit": "ppm"}, {"measurement": "Colorant concentration in feed to achieve desired CF value", "setting": "chickens [1]; desired CF value 10, 30% Corn feed", "value": 2.1, "unit": "ppm"}, {"measurement": "Colorant concentration in feed to achieve desired CF value", "setting": "chickens [1]; desired CF value 10, 50% Corn feed", "value": 2.4, "unit": "ppm"}, {"measurement": "Colorant concentration in feed to achieve desired CF value", "setting": "chickens [1]; desired CF value 11, 30% Corn feed", "value": 2.8, "unit": "ppm"}, {"measurement": "Colorant concentration in feed to achieve desired CF value", "setting": "chickens [1]; desired CF value 11, 50% Corn feed", "value": 3.1, "unit": "ppm"}, {"measurement": "Colorant concentration in feed to achieve desired CF value", "setting": "chickens [1]; desired CF value 12, 30% Corn feed", "value": 3.6, "unit": "ppm"}, {"measurement": "Colorant concentration in feed to achieve desired CF value", "setting": "chickens [1]; desired CF value 12, 50% Corn feed", "value": 4.0, "unit": "ppm"}, {"measurement": "Colorant concentration in feed to achieve desired CF value", "setting": "chickens [1]; desired CF value 13, 30% Corn feed", "value": 4.7, "unit": "ppm"}, {"measurement": "Colorant concentration in feed to achieve desired CF value", "setting": "chickens [1]; desired CF value 13, 50% Corn feed", "value": 5.2, "unit": "ppm"}, {"measurement": "Colorant concentration in feed to achieve desired CF value", "setting": "chickens [1]; desired CF value 14, 30% Corn feed", "value": 6.4, "unit": "ppm"}, {"measurement": "Colorant concentration in feed to achieve desired CF value", "setting": "chickens [1]; desired CF value 14, 50% Corn feed", "value": 6.8, "unit": "ppm"}, {"measurement": "Colorant concentration in feed to achieve desired CF value", "setting": "chickens [1]; desired CF value 15, 30% Corn feed", "value": 9.8, "unit": "ppm"}, {"measurement": "Colorant concentration in feed to achieve desired CF value", "setting": "chickens [1]; desired CF value 15, 50% Corn feed", "value": 9.7, "unit": "ppm"}, {"measurement": "a* value (red color) of yolk in relation to corn content", "setting": "chickens [2]", "value": "increased in proportional to the corn content"}]}]}
